Laboratory results as given in US20060264411A1, “Control of biofilm formation” (priority 2005, published 2006).

Legend:
[1] = test system: E. coli clinical strain UTI89; experiment: Invasion of E. coli UTI89 into bladder epithelial cells; format: cell-based; conditions: 40 μg/ml; 60 minutes; separate experiments (n=4-7)
Method: The effect of test compounds on bacterial invasion of E. coli clinical strain UTI89 was studied as described in Elsinghorst, et al. 1994, Methods Enzymol, 236:405-420; and Martinez et al., 2000, EMBO J., 19:2803-2812. Epithelial bladder cells were grown in plates. Asiatic acid, corosolic acid, or ursolic acid were added at concentrations of 10 μg/ml, 20 μg/ml, or 40 μg/ml to bacteria and epithelial cells for approximately 5, 15, 30, or 60 minutes with approximately 10^7 CFU of E. coli. Binding was assessed at time zero and invasion was assessed at approximately 5, 15, 30, or 60 minutes from completing the mixture of compound, bacteria, and epithelial cells. As a control ethanol was added to cells to a final concentration of 0.1%. The effect of bacterial viability and bacterial adherence during the infection period was evaluated according to the methods described in Martinez et al., 2000, EMBO J., 19:2803-2812.

[2] = test system: P. aeruginosa (ATCC 27853); experiment: Antibacterial effect (NCCLS MIC); format: cell-based; conditions: Pseudomonas aeruginosa, ATCC27853, studied at 64 μg/mL, read-out: MIC (minimal inhibitory concentration)
Method: (§1) Using the appropriate NCCLS procedures, the antibacterial effect of asiatic acid on Haemophilus influenzae (ATCC 10211), E. coli (ATCC 25922), and P. aeruginosa (ATCC 27853) was studied at 64 μg/mL.

E. coli (ATCC 25922) = experiment: Antibacterial effect (NCCLS MIC); format: cell-based; conditions: Escherichia coli, ATCC25922, studied at 64 μg/mL, read-out: MIC (minimal inhibitory concentration)
Method: as §1

[3] = test system: Haemophilus influenzae (ATCC 10211); experiment: Antibacterial effect (NCCLS MIC); format: cell-based; conditions: ATCC10211, studied at 64 μg/mL, read-out: MIC (minimal inhibitory concentration)
Method: as §1

[4] = test system: E. coli clinical strain UTI89; experiment: Biofilm formation inhibition, crystal violet, E. coli clinical strain UTI89; format: cell-based; conditions: Escherichia coli, read-out: inhibited biofilm formation as compared to the controls
Method: Biofilm inhibition experiments were conducted using an assay adapted from the reported protocol described in Pratt and Kolter, 1998, Molecular Microbiology, 30: 285-293; Li et al., 2001, J. Bacteriol., 183: 897-908. E. coli clinical strain UTI89 was grown in LB in 96 well plates at room temperature for one or two days without shaking. E. coli laboratory strain JM109 was grown in LB plus 0.2% glucose in 96 well plates at room temperature for one day without shaking. To quantify the biofilm mass, the suspension culture was poured out and the biofilm was washed three times with water. The biofilm was stained with 0.1% crystal violet for 20 minutes. The plates were then washed three times with water. OD reading at 540 nm was measured to quantify the biofilm mass at the bottom of the wells. Then 95% ethanol was added to dissolve the dye at the bottom and on the wall and the OD reading at 540 nm was measured to quantify the total biofilm mass. To study the overall effect of the compounds (3.6 mg/mL in 100% ethanol as stock solution), it was added with the inoculation and a time course of biofilm mass was measured. Appropriate amounts of 100% ethanol were added to each sample to eliminate the effect of solvent. Each condition had 3-4 replicates on each plate and was performed over multiple days.

[5] = Bladder concentrations in rats after oral dose; conditions: rat, in vivo, po, 50 mg/kg
Method: Pharmacokinetic studies of asiatic acid and madecassic acid in rats were performed separately. Asiatic acid and madecassic acid were evaluated at 50 mg/kg (oral). Two animals were assigned to each group. Prior to dosing, a baseline blood sample was taken from each animal. At time zero, asiatic acid and madecassic acid, a single bolus dose in 50% Labrasol (Gattefosse) was given to each animal. Bladders were analyzed at 24 hours. Concentrations of both asiatic acid and madecassic acid in the bladder were approximately 30 μg/g at 24 hours.

[6] = test system: Clinical isolates of P. aeruginosa from cystic fibrosis patients; experiment: Detachment of mature biofilms on peg lids, crystal violet; format: cell-based; conditions: 5 ug/ml; about 40 hours; eighteen clinical isolates
Method: Clinical isolates of P. aeruginosa from cystic fibrosis patients were passed twice on tryptic soy agar with 5% sheep blood after retrieval from −80° C. and then grown overnight in CAMHB. After dilution of a culture to 0.5 McFarland in broth medium, 100 μl was transferred in triplicate to wells of a flat-bottom 96-well microtiter plate. Bacterial biofilms were formed by immersing the pegs of a modified polystyrene microtiter lid into this biofilm growth plate, followed by incubation at 37° C. for 20 hours with no movement.
Peg lids were rinsed three times in sterile water, placed onto flat-bottom microtiter plates containing biofilm inhibitors at 5 ug/ml in 100 μl of CAMHB per well and incubated for approximately 40 hours at 37° C.
Pegs were rinsed, placed in a 0.1% (wt/vol) crystal violet solution for 15 min, rinsed again, and dried for several hours. To solubilize adsorbed crystal violet, pegs were incubated in 95% ethanol (150 μl per well of a flat-bottom microtiter plate) for 15 min. The absorbance was read at 590 nm on a plate reader. The wells containing asiatic acid were compared to negative controls. Negative controls were prepared as stated above but without asiatic acid.

bacterial invasion = experiment: Bacterial invasion statement of Example 9; conditions: within 15 minutes of administration
S. sobrinus 6715 = experiment: Biofilm growth inhibition in polycarbonate tubes; format: cell-based; conditions: Streptococcus sobrinus, 40 μg/mL
cysB gene = conditions: examples of U.S. patent application Ser. No. 11/085,279; cited from earlier work

C[C@H]1[C@H](C)CC[C@]2(C(=O)O)CC[C@]3(C)C(=CC[C@@H]4[C@@]5(C)C[C@@H](O)[C@H](O)[C@@](C)(CO)[C@@H]5CC[C@]43C)[C@H]12 [Asiatic acid, asiatic acid]
reduced invasion of E. coli into bladder epithelial cells as compared to the controls [1]: 87%
MIC [2]: > 64 µg/mL
MIC (E. coli (ATCC 25922)): > 64 µg/mL
MIC [3]: > 64 µg/mL
inhibition at 4 µg/mL ([4]; 4 ug/ml): ~10%
inhibition at 8 µg/mL ([4]; 8 ug/ml): ~15%
inhibition at 16 µg/mL ([4]; 16 ug/ml): ~50%
inhibition at 32 µg/mL ([4]; 32 ug/ml): ~90%
concentration at 24 h [5]: ~30000 ng/g
average detachment of mature biofilms compared to negative controls [6]: approximately 50%
bacterial invasion (in words) (bacterial invasion): significantly reduced bacterial invasion
inhibition at 40 µg/mL (S. sobrinus 6715): > 75%
expression of a cysB gene in E. coli (cysB gene): modulate the expression of a cysB gene
